Reference: US7893299B2, “Interleukin-1 and tumor necrosis factor-αmodulators; syntheses of such modulators and methods of using such modulators” (Nereus Pharmaceuticals, Inc., priority 2005, dated 2011)
Read-outs that look alike come from different tables or passages of the source.

Legend:
THP-1 cells = test: resazurin viability assay in THP-1 cells; type: cell-based, human; conditions: * mild, ** marked reduction in viability, in % (unit assumed)
Protocol: (§1) The ability to inhibit TNF-α production was analyzed in THP-1 cells, a human acute monocytic leukemia cell line that is widely used to assess monocyte functions. In order to induce maturation, THP-1 cells were plated at 1×10^6 cells/ml and pretreated with 5 nM PMA for two days. Differentiated THP-1 cells were pretreated with various concentrations of TTL3 or its analogs for 1 hour, followed by a 4 hour incubation with 1 μg of LPS (Sigma, St. Louse, Mo.). The p38 inhibitor (SB 203580; Sigma, St. Louis, Mo.) was used as a positive control. Supernatants were collected and stored at −80° C. until assayed for TNF-α activity. A resazurin assay was performed for each analog to evaluate the effects on cell metabolism and viability.
A preparation of the dye resazurin, commercially-available as alamarBlue™ (Biosource International Inc., 820 Flynn Road, Camarillo, Calif.), was used for the cytotoxicity assays described herein. The assays and experiments described herein were conducted in substantially the same manner as described in the scientific literature, for example, in Magnani, E. and Bettini, E., “Resazurin detection of energy metabolism changes in serum-starved PC12 cells and of neuroprotective agent effect,” Brain Res Protoc., 2000 July; 5(3):266-72 and in Nociari M. M., Shalev A., Benias P., and Russo C. J, “A novel one-step, highly sensitive fluorometric assay to evaluate cell-mediated cytotoxicity,” Immunol. Methods 213, 157-167 (1998), see also U.S. Pat. No. 5,501,959, entitled “Antibiotic and Cytotoxic Drug Susceptibility Assays using Resazurin and Poising Agents,” the entire specification of which is incorporated herein by reference.

HPBMC = HPBMC cell viability, Resazurin; type: cell-based, Human; conditions: HPBMC, 24 hr drug exposure, read-out: EC50 Inhibition of cell growth
Protocol: (§2) Eighty μl of 3.1×10^5/ml Human Peripheral Blood Mononuclear cells (HPBMC) were seeded in Costar 3904 96-well plate in LGM-3 medium and cultured for 12 hr at 37° C., 5% CO2 and 95% humidified air. 10 μl of 8-point half-log serial dilutions of LT-1-85, CC-3-19, CC-3-13P, formula (IIB-A1) and CC-3-22 prepared in LGM-3 medium was added to the cells and incubated for 1 hr. Subsequently, 10 μl of 500 ng/ml lipopolysaccharide (LPS) diluted in LGM-3 medium from 1 mg/ml stock solution was added to the cells and incubation proceeded for another 4 hr at 37° C., 5% CO2 and 95% humidified air. SB203580, a known p38 MAP kinase inhibitor and DMSO were used as positive and negative controls, respectively. After 4 hr stimulation with LPS, the level of TNF-α from each sample was analyzed by using the human TNF-α cytoset ELISA kit. EC50 values (the drug concentration at which 50% of the maximal observed TNF-α production is inhibited) were determined using a standard sigmoidal dose response curve fitting algorithm (Prism 2.0, GraphPad Software Inc). A duplicate set of cell plates were assayed for cell viability using the Resazurin dye after the cells were incubated with test compounds for 24 hr. The fluorescence of the reduction product of Resazurin was measured using a Fusion microplate fluorometer (Packard Bioscience) with λex=535 nm and λem=590 nm filters. EC50 values (the drug concentration at which 50% of the maximal observed growth inhibition is established) were determined using a standard sigmoidal dose response curve fitting algorithm (Prism 2.0, GraphPad Software Inc).

[1] = tested on: TNF-α production in HPBMC; test: TNF-α levels in LPS-stimulated Human Peripheral Blood Mononuclear cells (ELISA); type: cell-based; conditions: 5 hr drug exposure, read-out: EC50 Inhibition of TNF-α production
Protocol: as §2

[2] = tested on: TNF-α production in THP-1 cells; test: LPS-induced TNF-α production in differentiated THP-1 cells (FLISA); type: cell-based; conditions: Homo sapiens, read-out: Percent TNF-α Inhibition
Protocol: as §1
To detect the presence of human TNFα, fluorescent linked immunosorbent assay or FLISA was developed and optimized. 100 μl of beads (6 μm, Spherotech) coated with goat anti-mouse IgG (1 mg/ml, R and D Systems) were mixed with 4 μl of biotin-anti-hTNFα mouse IgG (0.1 mg/ml, R and D Systems) and 2 μl of FMAT Blue-streptavidin (0.1 mg/ml, Applied Biosystems). 50 μl of the mixtures was combined with 50 μl of the supernatant isolated from treated THP-1 cells and added to the black wall FLISA plates (Applied Biosystems) and incubated overnight. The plates were scanned at factory set PMT setting, and the values were plotted and analyzed by Applied Biosystems software.

PC-3 cells = test: cell growth inhibition, PC-3, Resazurin, 1% FBS; type: cell-based, Human; conditions: 48 hr of drug exposure
Protocol: (§3) Human prostate adenocarcinoma (PC-3; CRL-1435), multiple myeloma (RPMI 8226; CCL-155) and embryonic kidney (HEK-293; CRL-1573) cells were all purchased from ATCC and maintained in appropriate culture media. The cells were cultured in an incubator at 37° C. in 5% CO2 and 95% humidified air.
(§4) For cell growth inhibition assays, PC-3 and HEK-293 cells were seeded at 5×10^3 and 1.5×10^3 cells/well respectively in 90 μl media containing 1% (v/v) FBS into 96 well (Corning; 3904) black-walled, clear-bottom tissue culture plates and the plates were incubated overnight to allow cells to establish and enter log phase growth. RPMI 8226 cells were seeded at 2×10^4 cells/well respectively in 90 μl media containing 1% (v/v) FBS into 96 well plates on the day of the assay. 4 mg/ml stock solutions of the compounds were prepared in 100% DMSO and stored at −20° C. The compounds were serially diluted and added in triplicate to the test wells. LT-1-85 was tested at concentrations ranging from 27 μM to 8.6 nM. Concentrations ranging from 30 μM to 9.7 nM were tested for CC-3-13P. Formula (IIB-A1) was tested at concentrations ranging from 26 μM to 8.4 nM. The plates were returned to the incubator for 48 hours. The final concentration of DMSO was 0.25% in all samples.
(§5) Following 48 hours of drug exposure, 10 μl of 0.2 mg/ml Resazurin in Mg2+, Ca2+ free phosphate buffered saline was added to each well and the plates were returned to the incubator for 3-6 hours. Since living cells metabolize Resazurin, the fluorescence of the reduction product of Resazurin was measured using a Fusion microplate fluorometer (Packard Bioscience) with λex=535 nm and λem=590 nm filters. Resazurin dye in medium without cells was used to determine the background, which was subtracted from the data for all experimental wells. […] Where the maximum inhibition of cell growth was less than 50%, an EC50 value was not determined. The data in Table 25 summarize the growth inhibitory effects of LT-1-85, CC-3-13P and formula (IIB-A1) against HEK-293, PC-3 and RPMI 8226 cells. The EC50 values indicate that LT-1-85 and CC-3-13P are cytotoxic against HEK-293, PC-3 and RPMI 8226 cells. Formula (IIB-A1) is cytotoxic against RPMI 8226 cells.

RPMI 8226 cells = test: cell growth inhibition, RPMI 8226, Resazurin, 1% FBS; type: cell-based, Human; conditions: 48 hr of drug exposure
Protocol: as §3, §4, §5

Row | EC50 ([1]; Homo sapiens, PBMC, 5 h) [nM] | EC50 (PC-3 cells) [nM] | EC50 (PC-3 cells; Homo sapiens, PC-3, 48 h) [nM] | EC50 [1] [nM] | Compound | Effect on Cell Viability (THP-1 cells; 100 ng/ml) | Effect on Cell Viability (THP-1 cells; 1 ug/ml) | EC50 (HPBMC; Homo sapiens, 24 h) [nM] | Effect on Cell Viability (THP-1 cells; 10 ug/ml) | inhibition at 0.1 µg/mL ([2]; 100 ng/ml) [%] | inhibition at 1 µg/mL ([2]; 1 ug/ml) [%] | inhibition at 10 µg/mL ([2]; 10 ug/ml) [%] | EC50 (HPBMC) [nM] | EC50 (RPMI 8226 cells) [nM] | EC50 (RPMI 8226 cells; Homo sapiens, RPMI-8226, 48 h) [nM]
1 | – | – | – | – | C=C[C@@]1(C)CCC=C2[C@H]1CC[C@@H]1[C@](C)(C(=O)O)CCC[C@@]21C [TTL1] | 100 | 100 | – | – | – | – | – | – | – | –
2 | 3300 | – | – | – | C=C[C@@]1(C)CCC=C2[C@H]1CC[C@@H]1[C@](C)(CC(=O)CN3CCNCC3)CCC[C@@]21C [CC-3-19] | – | – | 3000 | – | – | – | – | – | – | –
3 | 7400 | – | – | – | C=C[C@@]1(C)CCC=C2[C@H]1CC[C@@H]1[C@](C)(COC(=O)CN3CCOCC3)CCC[C@@]21C [CC-3-22] | 100 | 100 | 24000 | 100 | 0 | 0 | 20 | – | – | –
4 | 500 | 4000 | 3700 | 400 | C=C[C@@]1(C)CCC=C2[C@H]1CC[C@@H]1[C@](C)(CNCCN)CCC[C@@]21C [CC-3-13P] | – | – | 900 | – | – | – | – | 700 | 2700 | 2300
